The source of these data is US20150110849A1, “ANTIMICROBIAL ACCESSORY FOR AN IMPLANTABLE MEDICAL DEVICE” (Medtronic, Inc., priority 2009, published 2015).

The assay is described as follows: zone of inhibition (ZOI) of antimicrobial accessories. The class given is cell-based. The source says:
Examples 30-54 illustrate zone of inhibition (ZOI) data collected for antimicrobial accessories including minocycline HCl and/or rifampin. Various polymers and excipients were used in combination with minocycline HCl and/or rifampin. […] In Table 22, M stands for minocycline HCl, R stands for rifampin, SiO2 is silica, PVP is polyvinylpyrrolidone, BIO-PSA 7-4601 is a silicone PSA available from Dow Corning Corp, Midland, Mich., MDX4-4210 is a liquid silicone rubber available from Dow Corning, Corp., Midland, Mich., LSR Q7-4850 is a liquid silicone rubber available from Dow Corning, Corp., Midland, Mich., and MED-1137 a silicone adhesive available from NuSil Silicone Technology, Carpinteria, Calif.

Structures can show the parent of a compound that is named as a salt.

For the compound `CN(C)c1ccc(O)c2c1C[C@H]1C[C@H]3[C@H](N(C)C)C(O)=C(C(N)=O)C(=O)[C@@]3(O)C(O)=C1C2=O` [Example 30, minocycline HCl], the “Average ZOI” value is 16 mm.
In the case of `CO[C@H]1/C=C/O[C@@]2(C)Oc3c(C)c(O)c4c(O)c(c(/C=N/N5CCN(C)CC5)c(O)c4c3C2=O)NC(=O)/C(C)=C\C=C\[C@H](C)[C@H](O)[C@@H](C)[C@@H](O)[C@@H](C)[C@H](OC(C)=O)[C@@H]1C` [Example 31, rifampin] it was 17 mm.
